SMILES strings stand for the structures.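 Results reflect a 48-hour exposure of cells in 96-well plates to compound at five concentrations. The concentration for 50% growth inhibition is given as GI50. The concentration for full growth arrest is given as TGI.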

Among the test systems are HCC-2998 colon; OVCAR-5 ovarian; SK-OV-3 ovarian; KM12 colon; SF-539 CNS; SNB-75 CNS; MDA-MB-435; TK-10 renal; CCRF-CEM leukemia; BT-549 breast.
Holding throughout (test): NCI anticancer screen, dose series, 48 h

`O=S(=O)(O)ONC1=NCCN1`: the GI50 in the test on HCC-2998 colon, in the test with OVCAR-5 ovarian, in the test with SK-OV-3 ovarian, with KM12 colon, with SF-539 CNS and with SNB-75 CNS was above 100 µM each time. The figures for the GI50 in the test with MDA-MB-435, in the test with TK-10 renal and in the test on CCRF-CEM leukemia were above 100 µM, above 100 µM and 43.4 µM, respectively. Moreover, the TGI in the test on HCC-2998 colon, in the test with OVCAR-5 ovarian, in the test on SK-OV-3 ovarian, in the test on KM12 colon, in the test on SF-539 CNS and in the test with SNB-75 CNS was above 100 µM in each case. Also, the TGI in the test with MDA-MB-435, in the test on TK-10 renal and in the test with CCRF-CEM leukemia was above 100 µM in each case.

Regarding `NS(=O)(=O)c1ccc(NC(=O)Nc2ccccc2F)cc1`, the TGI with BT-549 breast, with HCC-2998 colon, in the test with OVCAR-5 ovarian, in the test on SK-OV-3 ovarian, with KM12 colon and in the test on SF-539 CNS was above 100 µM in each case. In addition, the TGI with SNB-75 CNS, in the test on MDA-MB-435 and with TK-10 renal was above 100 µM throughout.

For the compound `COc1cc([C@@H]2c3cc4c(cc3C(OC3O[C@@H]5COC(C)O[C@H]5[C@H](O)[C@H]3O)C3COC(=O)[C@@H]32)OCO4)cc(OC)c1O` (stereo not given in full), the GI50 was 1.66 µM in the test with BT-549 breast; 1.91 µM in the test with HCC-2998 colon; 11 µM with OVCAR-5 ovarian; 1.58 µM in the test with SK-OV-3 ovarian; 2.46 µM in the test with KM12 colon; 0.635 µM in the test with SF-539 CNS. The GI50 with SNB-75 CNS is 1.18 µM; in the test on MDA-MB-435, 3.89 µM; in the test with TK-10 renal, 3.56 µM. For the same compound, the TGI with BT-549 breast is above 29.2 µM; in the test on HCC-2998 colon, 11.2 µM; with OVCAR-5 ovarian it was above 50 µM; with SK-OV-3 ovarian it was 14.2 µM; in the test on KM12 colon it was above 24.4 µM; in the test with SF-539 CNS, 3.78 µM. In addition, the figures for the TGI with SNB-75 CNS, in the test on MDA-MB-435 and with TK-10 renal were above 18.9 µM, above 50 µM and 15.4 µM, respectively.

As to `Cc1cc(O)c(C(c2ccncc2)c2c(O)cc(C)[nH]c2=O)c(=O)[nH]1`, the TGI in the test with BT-549 breast, with OVCAR-5 ovarian, with SK-OV-3 ovarian, in the test on KM12 colon, in the test on MDA-MB-435 and with TK-10 renal was above 100 µM each time. The compound further came in with a TGI in the test with CCRF-CEM leukemia above 100 µM.

`O=C(Nc1cccc(C(F)(F)F)c1)c1cc(Br)cc(Br)c1O`: the TGI in the test with HCC-2998 colon is above 10 µM; with OVCAR-5 ovarian, above 10 µM; in the test on SK-OV-3 ovarian, 9.38 µM; in the test on KM12 colon, above 10 µM; in the test on SF-539 CNS, 9.15 µM; in the test on SNB-75 CNS, above 10 µM. Also, the TGI in the test with MDA-MB-435 was above 10 µM; in the test with TK-10 renal, 7.38 µM; in the test with CCRF-CEM leukemia, above 10 µM.

As to `O=C1c2ccn(CCCCN3CCC(O)CC3)c2C(=O)c2c1c(O)c1ccccc1c2O`, the GI50 is 13.2 µM in the test on BT-549 breast; 20.6 µM with HCC-2998 colon; 33.4 µM in the test with OVCAR-5 ovarian; 41.3 µM with SK-OV-3 ovarian; 1.96 µM with KM12 colon; 43.8 µM in the test with SF-539 CNS. For the same compound, the GI50 in the test on SNB-75 CNS is 42.6 µM; in the test with TK-10 renal, 1.65 µM. Besides, the TGI with BT-549 breast is 51.6 µM; with HCC-2998 colon, above 59.5 µM; with OVCAR-5 ovarian, above 66.8 µM; in the test on SK-OV-3 ovarian, above 74.6 µM; in the test on KM12 colon, 5.2 µM; in the test with SF-539 CNS, above 100 µM. Further, the TGI in the test with SNB-75 CNS is above 61.2 µM; with TK-10 renal, 3.36 µM.

Take `C#Cc1cc2c(N)c(C(=O)c3cc(OC)c(OC)c(OC)c3)[nH]c2cc1OC`: the GI50 in the test with HCC-2998 colon is 42.5 µM; with OVCAR-5 ovarian, 3.79 µM; with SK-OV-3 ovarian, 0.517 µM; with KM12 colon, 0.412 µM; in the test on SF-539 CNS, 0.28 µM; with SNB-75 CNS, 0.208 µM. Moreover, the GI50 with TK-10 renal is 17.8 µM; with CCRF-CEM leukemia, 0.63 µM. The TGI in the test on HCC-2998 colon was above 100 µM; in the test on OVCAR-5 ovarian, above 100 µM; in the test with SK-OV-3 ovarian, above 100 µM; with KM12 colon, above 100 µM; in the test on SF-539 CNS it was 1.6 µM; in the test with SNB-75 CNS, 1.18 µM. For the same compound, the TGI with TK-10 renal and in the test with CCRF-CEM leukemia was above 100 µM throughout.

Turning to `O=C(NCCCCOCC#Cc1ccccc1C#CCS(=O)(=O)c1ccccc1)c1cc2ccccc2[nH]1`, the GI50 in the test on BT-549 breast was 8.38 µM; with HCC-2998 colon, 12 µM; with OVCAR-5 ovarian, 26.8 µM; with SK-OV-3 ovarian, 19.5 µM; in the test on KM12 colon, 17.5 µM; in the test with SF-539 CNS, 12.1 µM. Further, the GI50 in the test on SNB-75 CNS was 12.5 µM; in the test with MDA-MB-435, 10.6 µM; with TK-10 renal, 23.5 µM. In addition, the TGI was above 27.1 µM in the test on BT-549 breast; 32.4 µM in the test with HCC-2998 colon; above 50 µM in the test with OVCAR-5 ovarian; above 50 µM in the test with SK-OV-3 ovarian; above 50 µM with KM12 colon; 26.8 µM with SF-539 CNS. For the same compound, the figures for the TGI with SNB-75 CNS, in the test on MDA-MB-435 and with TK-10 renal were 27.3 µM, 30.3 µM and above 50 µM, respectively.

As to `CN(C)CC1CCCC/C1=N/OC(=O)c1ccc(Cl)c(Cl)c1` (stereo not given), the TGI with HCC-2998 colon, in the test with OVCAR-5 ovarian, in the test with SK-OV-3 ovarian, with KM12 colon, in the test on SF-539 CNS and with SNB-75 CNS was above 100 µM each time. For the same compound, the TGI with TK-10 renal and in the test with CCRF-CEM leukemia was above 100 µM each time.

On to `O=C(CC(=O)c1ccccc1)c1ccccc1`, for which the GI50 in the test on BT-549 breast is 9.37 µM; with OVCAR-5 ovarian, 25.6 µM; in the test with SK-OV-3 ovarian it was 22.2 µM; with KM12 colon it was 3.98 µM; with SF-539 CNS, 4.5 µM; with SNB-75 CNS, 22.9 µM. The GI50 in the test on MDA-MB-435 was 29.3 µM; in the test on TK-10 renal, 20.5 µM. Moreover, the TGI in the test on BT-549 breast was 34.3 µM; in the test with OVCAR-5 ovarian it was above 100 µM; in the test on SK-OV-3 ovarian, above 100 µM; in the test with KM12 colon it was above 100 µM; in the test on SF-539 CNS, 16.2 µM; with SNB-75 CNS, above 100 µM. Moreover, the TGI is above 100 µM in the test on MDA-MB-435 and 93.7 µM in the test on TK-10 renal.

The values are drawn from PubChem BioAssay (NCI).
